Laboratory results from patent US20110039879A1, “METHODS FOR INCREASING WHITE BLOOD CELLS” (FibroGen ,Inc., priority 2007, published 2011).
Marks after values point to notes of the source that are not given here.

Key:
[1] = system: total white blood cell (WBC); test: Chemotherapy (cisplatin)-induced leukopenia, total WBC by CBC; assay type: in vivo, Sprague Dawley rats; settings: rats; for Total WBC / Total WBC % Change from Control: blood day 4; for Total WBC % Change from Control: vs healthy control; for total white blood cell levels in the cisplatin-treated animals (in words): Compound S 60 mg/kg or Compound B 40 mg/kg oral gavage day 0, 2, 4
Protocol: (§1) To examine the effect of compounds and methods of the present invention on increasing white blood cells, the following studies were performed. In one series of experiments, male Swiss-Webster mice were administered various compounds of the present invention via oral gavage using a ball-tipped gavage needle. Animals treated by oral gavage received a 10 ml/kg volume of either 0.5% carboxymethyl cellulose (CMC) with 0.1% Polysorbate 80 (vehicle control) or various doses (10-100 mg/kg) of a compound of the present invention in 0.5% CMC with 0.1% Polysorbate 80. Animals were dosed once daily for 3 or 4 days. […] The following study was performed to examine the effect of compounds and methods of the present invention on treatment of chemotherapy-induced leukopenia. Thirty-eight Sprague Dawley male rats (280-300 g) were obtained from Charles River Laboratories. Six rats served as healthy controls. On day 0, the remaining thirty-two rats were treated by intravenous injection (i.v.) with a single dose of cisplatin (CP) (Bedford Laboratories, Bedford Ohio) at 5 mg/kg and by oral gavage with one of the following: Compound S at 60 mg/kg; Compound B at 40 mg/kg; or vehicle 2 ml/kg. Compound was administered on day 0, day 2, and day 4 with the first dose given two hours before the CP injection. Blood samples (0.2 ml) were collected on day 4 as follows. Animals were anesthetized with isoflurane and 0.2 ml of blood was collected from the tail vein into a MICROTAINER EDTA-2K tube (Becton-Dickinson). Blood samples were processed to measure total white blood cell, neutrophil, and lymphocyte levels by CBC analysis as described above in Example 3.

neutrophils [2] = test: Chemotherapy (cisplatin)-induced leukopenia, neutrophils by CBC; assay type: in vivo, Sprague Dawley rats; settings: rats, blood day 4; for Neutrophils % Change from Control: vs healthy control
Protocol: as §1

lymphocytes [3] = test: Chemotherapy (cisplatin)-induced leukopenia, lymphocytes by CBC; assay type: in vivo, Sprague Dawley rats; settings: rats, blood day 4; for Lymphocytes % Change from Control: vs healthy control
Protocol: as §1

[4] = system: hematopoietic progenitor cells (HPCs); test: Hematopoietic progenitor cells (Sca-1+/c-Kit+) in blood by FACS analysis; assay type: in vivo, Swiss-Webster mice; settings: mice, oral gavage, blood 6 h after final dosing
Protocol: (§2) To examine the effect of compounds and methods of the present invention on hematopoietic progenitor cell (HPC) and neutrophil levels, the following studies were performed. Male Swiss-Webster mice were administered various compounds of the present invention via oral gavage using a ball-tipped gavage needle. Animals treated by oral gavage received a 10 ml/kg volume of either 0.5% carboxymethyl cellulose (CMC) with 0.1% Polysorbate 80 (vehicle control) or various doses (10-100 mg/kg) of a compound of the present invention in 0.5% CMC with 0.1% Polysorbate 80. Animals were dosed once daily for 3 or 4 days.
(§3) Six hours after the final dosing, 200 μl blood samples were collected for detection of hematopoietic progenitor cells (HPCs) and neutrophils by FACS analysis using methods previously described. (See, e.g., Wang et al. (1997) J Leukoc Biol 62 503-9 and Legasse et al. (1996) J Immunol Methods 197:139-50.) Briefly, leukocytes and progenitor cells were isolated from whole blood samples following erythrocyte depletion using red blood cell lysis buffer (eBioscience) according to the manufacturer's instructions. The remaining cells were incubated for one hour with monoclonal antibodies directed against mouse Sca-1 and mouse c-Kit (cell surface markers for HPCs, BD Pharmingen), or mouse Mac-1 and mouse Gr-1 (cell surface markers for murine neutrophils, BD Pharmingen). Following incubation with the monoclonal antibodies, the cells were washed three times with sort buffer (PBS, 1% fetal bovine serum) and resuspended in sort buffer containing 50 μg/ml of propidium iodide. Samples were then analyzed for the presence and quantitation of HPCs and neutrophils by flow cytometry (FACS Calibur, Becton Dickinson). The cytometer was set to acquire 10 000 events. Two or three blood samples obtained from each animal were analyzed and the average recorded. Hematopoietic progenitor cells were determined as double positive Sca-1+/c-Kit+ cells and neutrophils were determined as double positive Mac-1+/Gr-1+ cells.

neutrophils [5] = test: Neutrophils (Mac-1+/Gr-1+) in blood by FACS analysis; assay type: in vivo, Swiss-Webster mice; settings: mice, oral gavage, blood 6 h after final dosing
Protocol: as §2, §3

[6] = system: hematopoietic progenitor cells (HPCs) in bone marrow; test: Hematopoietic progenitor cells in bone marrow by FACS analysis; assay type: in vivo, Swiss-Webster mice; settings: mice, oral gavage, tibia bone marrow 6 h after final dosing
Protocol: as §3
(§4) To examine the effect of compounds and methods of the present invention on hematopoietic progenitor cell (HPC) and neutrophil levels in bone marrow, the following studies were performed. Male Swiss-Webster mice were administered various compounds of the present invention via oral gavage using a ball-tipped gavage needle. Animals treated by oral gavage received a 10 ml/kg volume of either 0.5% carboxymethyl cellulose (CMC) with 0.1% Polysorbate 80 (vehicle control) or various doses (10-100 mg/kg) of a compound of the present invention in 0.5% CMC with 0.1% Polysorbate 80. Animals were dosed once daily for 3 or 4 days. Six hours after the final dosing, bone marrow samples were taken from one tibia of each animal and suspended in buffer (PBS with 1% fetal bovine serum). Bone marrow suspensions were then filtered through nylon filters to remove stromal cells. Following filtration, the remaining cells were counted manually using a hemocytometer. Detection and quantitation of HPCs and neutrophils were performed by FACS analysis as described above in Example 1.

[7] = system: neutrophils in bone marrow; test: Neutrophils in bone marrow by FACS analysis; assay type: in vivo, Swiss-Webster mice; settings: mice, oral gavage, tibia bone marrow 6 h after final dosing
Protocol: as §3, §4

[8] = system: total white blood cell (WBC); test: Total white blood cells by complete blood count, once daily dosing 3 or 4 days; assay type: in vivo, Swiss-Webster mice; settings: mice, oral gavage, blood 6 h after final dosing
Protocol: as §2, with “increasing white blood cells,” for “hematopoietic progenitor cell (HPC) and neutrophil levels,”, “In one series of experiments, male” for “Male”, “days. Six hours after the final dosing, 200 μl blood samples were collected and total white blood cell, neutrophil, and lymphocyte levels were measured by complete blood count (CBC) using a CellDyn cell analyzer (Abbott Laboratories).” for “days.”

neutrophils [9] = test: Neutrophils by complete blood count, once daily dosing 3 or 4 days; assay type: in vivo, Swiss-Webster mice; settings: mice, oral gavage, blood 6 h after final dosing, CBC
Protocol: as §2, with “increasing white blood cells,” for “hematopoietic progenitor cell (HPC) and neutrophil levels,”, “In one series of experiments, male” for “Male”, “days. Six hours after the final dosing, 200 μl blood samples were collected and total white blood cell, neutrophil, and lymphocyte levels were measured by complete blood count (CBC) using a CellDyn cell analyzer (Abbott Laboratories).” for “days.”

lymphocytes [10] = test: Lymphocytes by complete blood count, once daily dosing 3 or 4 days; assay type: in vivo, Swiss-Webster mice; settings: mice, oral gavage, blood 6 h after final dosing, CBC
Protocol: as §2, with “increasing white blood cells,” for “hematopoietic progenitor cell (HPC) and neutrophil levels,”, “In one series of experiments, male” for “Male”, “days. Six hours after the final dosing, 200 μl blood samples were collected and total white blood cell, neutrophil, and lymphocyte levels were measured by complete blood count (CBC) using a CellDyn cell analyzer (Abbott Laboratories).” for “days.”

[11] = cisplatin 5 mg/kg i.v. single dose day 0 plus vehicle by oral gavage
[12] = cisplatin 5 mg/kg i.v. day 0, compound 60 mg/kg oral gavage day 0, day 2, day 4
[13] = 100 mg/kg once daily for 4 days
[14] = cisplatin 5 mg/kg i.v. day 0, compound 40 mg/kg oral gavage day 0, day 2, day 4

SMILES: N.N.[Cl][Pt][Cl] [cisplatin, reference compound]
- reduction of total white blood cell levels compared to non-treated control animals ([1]; 5 mg/kg cisplatin, day 4): 21%
- Total WBC [1, 11]: 13.3 10^3 cells/μl
- Total WBC % Change from Control [1, 11]: −21%
- Neutrophils (neutrophils [2]; [11]): 1.6 10^3 cells/μl
- Neutrophils % Change from Control (neutrophils [2]; [11]): −22%
- Lymphocytes (lymphocytes [3]; [11]): 10.1 10^3 cells/μl
- Lymphocytes % Change from Control (lymphocytes [3]; [11]): −24%

SMILES: O=C(O)CNC(=O)c1nc(Cl)c2ccccc2c1O [Compound S, [(1-Chloro-4-hydroxy-isoquinoline-3-carbonyl)-amino]-acetic acid]
- total white blood cell levels in the cisplatin-treated animals (in words) ([1]; 5 mg/kg cisplatin, day 4): increased total white blood cell levels
- Total WBC [1, 12]: 20.2 10^3 cells/μl
- Total WBC % Change from Control [1, 12]: 19%
- Neutrophils (neutrophils [2]; [12]): 2.2 10^3 cells/μl
- Neutrophils % Change from Control (neutrophils [2]; [12]): 7%
- Lymphocytes (lymphocytes [3]; [12]): 16.2 10^3 cells/μl
- Lymphocytes % Change from Control (lymphocytes [3]; [12]): 21%

SMILES: Cc1nc(C(=O)NCC(=O)O)c(O)c2ccc(Oc3ccccc3)cc12 [Compound B, [(4-Hydroxy-1-methyl-7-phenoxy-isoquinoline-3-carbonyl)-amino]-acetic acid]
- Blood HPCs ([4]; 60 mg/kg once daily for 3 days): 67 cells/μl
- Blood HPCs Fold Increase Over Control ([4]; 60 mg/kg once daily for 3 days): 1.5 fold
- Percent Blood HPCs ([4]; 60 mg/kg once daily for 3 days): 0.7 % gated cells
- Percent Blood HPCs Fold Increase Over Control ([4]; 60 mg/kg once daily for 3 days): 1.1 fold
- Blood HPCs [4, 13]: 126 cells/μl
- Blood HPCs Fold Increase Over Control [4, 13]: 7.4 fold
- Percent Blood HPCs [4, 13]: 1.2 % gated cells
- Percent Blood HPCs Fold Increase Over Control [4, 13]: 3.8 fold
- Blood Neutrophils (neutrophils [5]; 60 mg/kg once daily for 3 days): 126 cells/μl
- Blood Neutrophils Fold Increase Over Control (neutrophils [5]; 60 mg/kg once daily for 3 days): 1.3 fold
- Percent Blood Neutrophils (neutrophils [5]; 60 mg/kg once daily for 3 days): 1.2 % gated cells
- Percent Blood Neutrophils Fold Increase Over Control (neutrophils [5]; 60 mg/kg once daily for 3 days): 0.9 fold
- Blood Neutrophils (neutrophils [5]; [13]): 936 cells/μl
- Blood Neutrophils Fold Increase Over Control (neutrophils [5]; [13]): 5.3 fold
- Percent Blood Neutrophils (neutrophils [5]; [13]): 9.1 % gated cells
- Percent Blood Neutrophils Fold Increase Over Control (neutrophils [5]; [13]): 2.7 fold
- Percent Bone Marrow HPCs ([6]; 60 mg/kg once daily for 3 days): 6.3 % gated cells
- Percent Bone Marrow HPCs Fold Increase Over Control ([6]; 60 mg/kg once daily for 3 days): 1.7 fold
- Percent Bone Marrow HPCs [6, 13]: 7.0 % gated cells
- Percent Bone Marrow HPCs Fold Increase Over Control [6, 13]: 1.6 fold
- Percent Bone Marrow Neutrophils ([7]; 60 mg/kg once daily for 3 days): 34.7 % gated cells
- Percent Bone Marrow Neutrophils Fold Increase Over Control ([7]; 60 mg/kg once daily for 3 days): 1.1 fold
- Percent Bone Marrow Neutrophils [7, 13]: 33.6 % gated cells
- Percent Bone Marrow Neutrophils Fold Increase Over Control [7, 13]: 1.3 fold
- Total WBC ([8]; 60 mg/kg once daily for 3 days): 8.80 10^3 cells/μl
- Total WBC % Increase Over Control ([8]; 60 mg/kg once daily for 3 days): 82%
- Total WBC [8, 13]: 10.24 10^3 cells/μl
- Total WBC % Increase Over Control [8, 13]: 94%
- Neutrophils (neutrophils [9]; 60 mg/kg once daily for 3 days): 1.28 10^3 cells/μl
- Neutrophils % Increase Over Control (neutrophils [9]; 60 mg/kg once daily for 3 days): 110%
- Neutrophils (neutrophils [9]; [13]): 0.96 10^3 cells/μl
- Neutrophils % Increase Over Control (neutrophils [9]; [13]): 66%
- Lymphocytes (lymphocytes [10]; 60 mg/kg once daily for 3 days): 7.40 10^3 cells/μl
- Lymphocytes % Increase Over Control (lymphocytes [10]; 60 mg/kg once daily for 3 days): 82%
- Lymphocytes (lymphocytes [10]; [13]): 9.18 10^3 cells/μl
- Lymphocytes % Increase Over Control (lymphocytes [10]; [13]): 101%
- total white blood cell levels in the cisplatin-treated animals (in words) ([1]; 5 mg/kg cisplatin, day 4): increased total white blood cell levels
- Total WBC [1, 14]: 16.8 10^3 cells/μl
- Total WBC % Change from Control ([1]; cisplatin 5 mg/kg i.v. day 0, compound 40 mg/kg oral gavage day 0, day 2, day 4, reduction not statistically significant): −1* %
- Neutrophils (neutrophils [2]; [14]): 2.2 10^3 cells/μl
- Neutrophils % Change from Control (neutrophils [2]; [14]): 7%
- Lymphocytes (lymphocytes [3]; [14]): 14.7 10^3 cells/μl
- Lymphocytes % Change from Control (lymphocytes [3]; [14]): 9%
